Source: patent US11168093B2, “Thienopyridine inhibitors of RIPK2” (Celgene Corporation, priority 2018, dated 2021)

Target: RIPK2 enzyme (Homo sapiens (Human), UniProt O43353)
Experiment: RIPK2 inhibition assay, TR-FRET LanthaScreen Tracer 199 screening assay
Assay type: binding
Details: 5 nM RIPK2 enzyme, Tracer 199 at 50 nM, Eu-anti-His Antibody at 2 nM, 1 hour incubation
Protocol: All data was collected using a standard TR-FRET screening assay: LanthaScreen Tracer 199 at 50 nM, Eu-anti-His Antibody at 2 nM, 5 nM RIPK2 enzyme, and 1× Kinase Reaction Buffer. There was a 1 hour incubation prior to read. TR-FRET signal of the interaction (340Ex/665Em/615Em) was read at room temperature with standard setting. Background was subtracted of wells containing no enzyme. Percent inhibition was based on uninhibited controls log (inhibitor) vs. response. Variable slope equation was used with no constraints: Log Y=Bottom+(Top−Bottom)/(1+10^((Log IC50−X)*Hill Slope)).
The compound numbers correspond to the compound numbers above.

Chain of RIPK2 enzyme (O43353 whole entry): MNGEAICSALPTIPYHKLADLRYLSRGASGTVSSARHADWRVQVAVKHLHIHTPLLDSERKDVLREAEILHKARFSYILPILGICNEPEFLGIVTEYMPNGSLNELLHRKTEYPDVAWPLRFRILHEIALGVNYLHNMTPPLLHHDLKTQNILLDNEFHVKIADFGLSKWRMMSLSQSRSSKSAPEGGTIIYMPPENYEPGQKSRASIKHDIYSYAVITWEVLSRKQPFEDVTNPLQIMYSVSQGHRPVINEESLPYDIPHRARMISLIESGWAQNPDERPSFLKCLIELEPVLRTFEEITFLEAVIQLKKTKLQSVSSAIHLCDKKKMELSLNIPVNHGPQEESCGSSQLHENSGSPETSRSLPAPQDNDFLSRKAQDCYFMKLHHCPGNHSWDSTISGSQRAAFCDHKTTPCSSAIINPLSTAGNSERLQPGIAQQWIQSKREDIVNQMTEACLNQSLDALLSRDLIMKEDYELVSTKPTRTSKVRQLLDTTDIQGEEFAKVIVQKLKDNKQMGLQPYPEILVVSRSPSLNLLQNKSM

| IC50 [nM] | SMILES |
| --- | --- |
| ≤ 10 | CC1C(c2cc3c(Nc4ccc5scnc5c4)ccnc3s2)CCCN1CCO (stereo not shown) [Example 20, 2-(3-(4-(benzo[d]thiazol-5-ylamino)thieno[2,3-b]pyridin-2-yl)-2-methylpiperidin-1-yl)ethan-1-ol] |
| ≤ 10 | CC1C(c2cc3c(Nc4ccc5scnc5c4F)ccnc3s2)CCN1CCO (stereo not shown) [Example 89, 2-(3-(4-((4-fluorobenzo[d]thiazol-5-yl)amino)thieno[2,3-b]pyridin-2-yl)-2-methylpyrrolidin-1-yl)ethan-1-ol] |
| 20 to 50 | CN1CCC(c2cc3c(Nc4c(F)cc5scnc5c4F)ccnc3s2)C12CCOCC2 (stereo not shown) [Example 103, 4,6-difluoro-N-(2-(1-methyl-8-oxa-1-azaspiro[4.5]decan-4-yl)thieno[2,3-b]pyridin-4-yl)benzo[d]thiazol-5-amine] |
| ≤ 10 | C1=C(c2cc3c(Nc4ccc5scnc5c4)ccnc3s2)C2(COC2)NC1 [Example 39, N-(2-(2-oxa-5-azaspiro[3.4]oct-7-en-8-yl)thieno[2,3-b]pyridin-4-yl)benzo[d]thiazol-5-amine] |
| ≥ 50 | CC1NCCCC1c1cc2c(Nc3ccc4scnc4c3)c(F)cnc2s1 (single isomer, unassigned) [Example 119d, N-(5-fluoro-2-(2-methylpiperidin-3-yl)thieno[2,3-b]pyridin-4-yl)benzo[d]thiazol-5-amine] |
| ≤ 10 | CCN1CCCC(c2cc3c(Nc4ccc5scnc5c4)ccnc3s2)C1C (stereo not shown) [Example 6, N-(2-(1-ethyl-2-methylpiperidin-3-yl)thieno[2,3-b]pyridin-4-yl)benzo[d]thiazol-5-amine] |
| 20 to 50 | CC1C(c2cc3c(Nc4cc5ncsc5cc4F)c(F)cnc3s2)CCCN1C (single isomer, unassigned) [Example 123d, N-(2-(1,2-dimethylpiperidin-3-yl)-5-fluorothieno[2,3-b]pyridin-4-yl)-6-fluorobenzo[d]thiazol-5-amine] |
| ≤ 10 | CN1CCC=C(c2cc3c(Nc4ccc5scnc5c4)ccnc3s2)CC1 [Example 106, N-(2-(1-methyl-2,3,6,7-tetrahydro-1H-azepin-4-yl)thieno[2,3-b]pyridin-4-yl)benzo[d]thiazol-5-amine] |
| ≤ 10 | C1=C(c2cc3c(Nc4ccc5scnc5c4)ccnc3s2)CNCCC1 [Example 112, N-(2-(2,5,6,7-tetrahydro-1H-azepin-3-yl)thieno[2,3-b]pyridin-4-yl)benzo[d]thiazol-5-amine] |
| ≤ 10 | CC1C(c2cc3c(Nc4ccc5scnc5c4)ccnc3s2)=CCCN1C (stereo not shown) [Example 2, N-(2-(1,2-dimethyl-1,2,5,6-tetrahydropyridin-3-yl)thieno[2,3-b]pyridin-4-yl)benzo[d]thiazol-5-amine] |
| 10 to 20 | CC1C(c2cc3c(Nc4ccc5scnc5c4)ccnc3s2)CCCN1C1COC1 (stereo not shown) [Example 17, N-(2-(2-methyl-1-(oxetan-3-yl)piperidin-3-yl)thieno[2,3-b]pyridin-4-yl)benzo[d]thiazol-5-amine] |
| 10 to 20 | CC1C(c2cc3c(Nc4c(F)cc5scnc5c4F)c(F)cnc3s2)CCCN1C (single isomer, unassigned) [Example 127d] |
| ≥ 50 | CC1NCCCC1c1cc2c(Nc3ccc4scnc4c3F)c(F)cnc2s1 (single isomer, unassigned) [Example 124d, 4-fluoro-N-(5-fluoro-2-(2-methylpiperidin-3-yl)thieno[2,3-b]pyridin-4-yl)benzo[d]thiazol-5-amine] |
| ≤ 10 | CC1(C)NCCC1c1cc2c(Nc3c(F)cc4scnc4c3F)ccnc2s1 (stereo not shown) [Example 96, N-(2-(2,2-dimethylpyrrolidin-3-yl)thieno[2,3-b]pyridin-4-yl)-4,6-difluorobenzo[d]thiazol-5-amine] |
| ≥ 50 | CCN1CCC(c2cc3c(Nc4cc5ncsc5cc4F)ccnc3s2)C12CCOC2 (stereo not shown) [Example 83, N-(2-(1-ethyl-7-oxa-1-azaspiro[4.4]nonan-4-yl)thieno[2,3-b]pyridin-4-yl)-6-fluorobenzo[d]thiazol-5-amine] |
| ≤ 10 | CC1NCCCC1c1cc2c(Nc3ccc4scnc4c3)c(F)cnc2s1 (single isomer, unassigned) [Example 119c, N-(5-fluoro-2-(2-methylpiperidin-3-yl)thieno[2,3-b]pyridin-4-yl)benzo[d]thiazol-5-amine] |
| ≤ 10 | COCCN1CCC=C(c2cc3c(Nc4ccc5scnc5c4)ccnc3s2)[C@@H]1C [Example 12b, N-(2-(1-(2-methoxyethyl)-2-methyl-1,2,5,6-tetrahydropyridin-3-yl)thieno[2,3-b]pyridin-4-yl)benzo[d]thiazol-5-amine] |
| ≤ 10 | CC(=O)N1CCC=C(c2cc3c(Nc4ccc5scnc5c4)ccnc3s2)CC1 [Example 107, 1-(4-(4-(benzo[d]thiazol-5-ylamino)thieno[2,3-b]pyridin-2-yl)-2,3,6,7-tetrahydro-1H-azepin-1-yl)ethan-1-one] |
| ≤ 10 | CC1NCCC1c1cc2c(Nc3cc4ncsc4cc3F)ccnc2s1 (stereo not shown) [Example 75, 6-fluoro-N-(2-(2-methylpyrrolidin-3-yl)thieno[2,3-b]pyridin-4-yl)benzo[d]thiazol-5-amine] |

| IC50 [nM] | SMILES |
| --- | --- |
| ≥ 50 | Fc1cc2scnc2cc1Nc1ccnc2sc(C3CCNC34CCOCC4)cc12 (stereo not shown) [Example 84, N-(2-(8-oxa-1-azaspiro[4.5]decan-4-yl)thieno[2,3-b]pyridin-4-yl)-6-fluorobenzo[d]thiazol-5-amine] |
| ≤ 10 | CCN1CCC[C@@H](c2cc3c(Nc4ccc5scnc5c4F)ccnc3s2)[C@H]1C [Example 64, N-(2-((2R,3R)-1-ethyl-2-methylpiperidin-3-yl)thieno[2,3-b]pyridin-4-yl)-4-fluorobenzo[d]thiazol-5-amine] |
| ≤ 10 | CC1NCCCC1c1cc2c(Nc3ccc4scnc4c3)ccnc2s1 (stereo not shown) [Example 3, N-(2-(2-methylpiperidin-3-yl)thieno[2,3-b]pyridin-4-yl)benzo[d]thiazol-5-amine] |
| 10 to 20 | CN1CC=C(c2cc3c(Nc4ccc5scnc5c4)ccnc3s2)C12CCOC2 (stereo not shown) [Example 41, N-(2-(1-methyl-7-oxa-1-azaspiro[4.4]non-3-en-4-yl)thieno[2,3-b]pyridin-4-yl)benzo[d]thiazol-5-amine] |
| ≤ 10 | CC1(C)C(c2cc3c(Nc4c(F)cc5scnc5c4F)ccnc3s2)CCN1CCO (stereo not shown) [Example 98, 2-(3-(4-((4,6-difluorobenzo[d]thiazol-5-yl)amino)thieno[2,3-b]pyridin-2-yl)-2,2-dimethylpyrrolidin-1-yl)ethan-1-ol] |
| ≤ 10 | C[C@H]1NCCC[C@H]1c1cc2c(Nc3ccc4scnc4c3F)ccnc2s1 [Example 56b, 4-fluoro-N-(2-((2R,3R)-2-methyl-piperidin-3-yl)thieno[2,3-b]pyridin-4-yl)benzo[d]thiazol-5-amine] |
| ≤ 10 | CCN1CCC[C@@H](c2cc3c(Nc4ccc5scnc5c4F)ccnc3s2)[C@@H]1C [Example 63, N-(2-((2S,3R)-1-ethyl-2-methylpiperidin-3-yl)thieno[2,3-b]pyridin-4-yl)-4-fluorobenzo[d]thiazol-5-amine] |
| 10 to 20 | C[C@@H]1NCCC[C@H]1c1cc2c(Nc3c(F)cc4scnc4c3F)ccnc2s1 [Example 68a, 4,6-difluoro-N-(2-((2S,3R)-2-methylpiperidin-3-yl)thieno[2,3-b]pyridin-4-yl)benzo[d]thiazol-5-amine] |
| ≤ 10 | CCN1CC=C(c2cc3c(Nc4ccc5scnc5c4)ccnc3s2)C12CCOC2 (stereo not shown) [Example 44, N-(2-(1-ethyl-7-oxa-1-azaspiro[4.4]non-3-en-4-yl)thieno[2,3-b]pyridin-4-yl)benzo[d]thiazol-5-amine] |
| ≤ 10 | CC1(C)NCCC1c1cc2c(Nc3ccc4scnc4c3F)ccnc2s1 (stereo not shown) [Example 90, N-(2-(2,2-dimethylpyrrolidin-3-yl)thieno[2,3-b]pyridin-4-yl)-4-fluorobenzo[d]thiazol-5-amine] |
| 10 to 20 | CN1CCC(c2cc3c(Nc4c(F)cc5scnc5c4F)ccnc3s2)C12CCOC2 (stereo not shown) [Example 100, 4,6-difluoro-N-(2-(1-methyl-7-oxa-1-azaspiro[4.4]nonan-4-yl)thieno[2,3-b]pyridin-4-yl)benzo[d]thiazol-5-amine] |
| ≤ 10 | CC1NCCCC1c1cc2c(Nc3c(F)cc4scnc4c3F)c(F)cnc2s1 (stereo not shown) [Example 126a, 4,6-difluoro-N-(5-fluoro-2-(2-methylpiperidin-3-yl)thieno[2,3-b]pyridin-4-yl)benzo[d]thiazol-5-amine] |
| ≤ 10 | CC1NCCCC1c1cc2c(Nc3ccc4scnc4c3)c(F)cnc2s1 (single isomer, unassigned) [Example 119b, N-(5-fluoro-2-(2-methylpiperidin-3-yl)thieno[2,3-b]pyridin-4-yl)benzo[d]thiazol-5-amine] |
| 10 to 20 | CC1NCCCCC1c1cc2c(Nc3c(F)cc4scnc4c3F)ccnc2s1 (single isomer, unassigned) [Example 118d, 4,6-difluoro-N-(2-(2-methylazepan-3-yl)thieno[2,3-b]pyridin-4-yl)benzo[d]thiazol-5-amine] |
| ≤ 10 | CC1(C)NCCC1c1cc2c(Nc3ccc4scnc4c3)ccnc2s1 (stereo not shown) [Example 33, N-(2-(2,2-dimethylpyrrolidin-3-yl)thieno[2,3-b]pyridin-4-yl)benzo[d]thiazol-5-amine] |
| ≤ 10 | CC1C(c2cc3c(Nc4ccc5scnc5c4)ccnc3s2)CCCN1CCCN (stereo not shown) [Example 18, N-(2-(1-(3-aminopropyl)-2-methylpiperidin-3-yl)thieno[2,3-b]pyridin-4-yl)benzo[d]thiazol-5-amine] |
| ≥ 50 | CC1NCCCC1c1cc2c(Nc3cc4ncsc4cc3F)c(F)cnc2s1 (stereo not shown) [Example 122a, 6-fluoro-N-(5-fluoro-2-(2-methylpiperidin-3-yl)thieno[2,3-b]pyridin-4-yl) benzo[d]thiazol-5-amine] |
| ≤ 10 | CC1NCC=C1c1cc2c(Nc3ccc4scnc4c3)ccnc2s1 (stereo not shown) [Example 25, N-(2-(2-methyl-2,5-dihydro-1H-pyrrol-3-yl)thieno[2,3-b]pyridin-4-yl)benzo[d]thiazol-5-amine] |
